Laboratory results taken from the supplement of paper PMC10307832.

Legend:
Experiment in all cases: relative viability (nuclei count vs DMSO), 5 days (fraction); higher = more cells survive
Cediranib + Palbociclib = compound: COc1cc2c(Oc3ccc4[nH]c(C)cc4c3F)ncnc2cc1OCCCN1CCCC1 [Cediranib] + CC(=O)c1c(C)c2cnc(Nc3ccc(N4CCNCC4)cn3)nc2n(C2CCCC2)c1=O [Palbociclib] (partner 0.5 µM)
Summary of the method: (§1)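 Lung cancer cell lines, seeded in 1536-well plates, were treated the following day by pin tool with a single drug or with five library-drug doses (not always all listed) in √10 steps on top of a fixed anchor-drug dose. Cells were fixed and nuclei stained in one step after 5 days, and nuclei were counted. Relative viability is the nuclei count for treated wells divided by that for vehicle wells, reported as medians of duplicate plates.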

Cediranib + Phenformin = compound: COc1cc2c(Oc3ccc4[nH]c(C)cc4c3F)ncnc2cc1OCCCN1CCCC1 [Cediranib] + N=C(N)NC(=N)NCCc1ccccc1 [Phenformin] (partner 250 µM)
Summary of the method: as §1

Decitabine + Palbociclib = compound: Nc1ncn([C@H]2C[C@H](O)[C@@H](CO)O2)c(=O)n1 [Decitabine] + CC(=O)c1c(C)c2cnc(Nc3ccc(N4CCNCC4)cn3)nc2n(C2CCCC2)c1=O [Palbociclib] (partner 0.5 µM)
Summary of the method: as §1

[1] = compound: O=C(C[C@H]1NCCC[C@@H]1O)Cn1cnc2cc(Br)c(Cl)cc2c1=O (racemic) [Halofuginone] + Nc1ncn([C@H]2C[C@H](O)[C@@H](CO)O2)c(=O)n1 [Decitabine] (partner 2 µM)
Summary of the method: as §1

Cell Line	relative viability (Cediranib + Palbociclib; first compound 0.04 µM)	relative viability (Cediranib + Palbociclib; first compound 0.1265 µM)	relative viability (Cediranib + Palbociclib; first compound 0.4 µM)	relative viability (Cediranib + Palbociclib; first compound 1.265 µM)	relative viability (Cediranib + Palbociclib; first compound 4 µM)	relative viability (Cediranib + Phenformin; first compound 0.04 µM)	relative viability (Cediranib + Phenformin; first compound 0.1265 µM)	relative viability (Cediranib + Phenformin; first compound 0.4 µM)	relative viability (Cediranib + Phenformin; first compound 1.265 µM)	relative viability (Cediranib + Phenformin; first compound 4 µM)	relative viability (Decitabine + Palbociclib; first compound 0.04 µM)	relative viability (Decitabine + Palbociclib; first compound 0.1265 µM)	relative viability (Decitabine + Palbociclib; first compound 0.4 µM)	relative viability (Decitabine + Palbociclib; first compound 1.265 µM)	relative viability (Decitabine + Palbociclib; first compound 4 µM)	relative viability ([1]; first compound 0.001 µM)	relative viability ([1]; first compound 0.003162 µM)	relative viability ([1]; first compound 0.01 µM)	relative viability ([1]; first compound 0.03162 µM)	relative viability ([1]; first compound 0.1 µM)
NCI-H2342	0.562	0.52	0.451	0.534	0.479	0.563	0.825	0.635	0.466	0.58	0.641	0.54	0.548	0.463	0.508	0.664	0.724	0.722	0.671	0.685
NCI-H2347	0.497	0.417	0.4	0.4	0.417	0.34	0.236	0.383	0.386	0.41	0.462	0.417	0.411	0.423	0.437	0.595	0.676	0.567	0.65	0.659
NCI-H2405	0.532	0.574	0.516	0.546	0.514	0.358	0.422	0.378	0.38	0.368	0.511	0.516	0.436	0.397	0.349	0.74	0.781	0.767	0.722	0.632
NCI-H3122	0.209	–	0.186	0.199	0.175	0.374	–	0.364	0.36	0.363	0.2	0.213	0.183	0.181	0.191	0.438	0.442	0.381	0.413	0.405
PC-3 [JPC-3]	0.571	–	0.515	0.559	0.563	0.462	0.498	0.489	0.472	0.468	–	0.572	0.496	0.493	0.511	0.77	0.832	0.861	0.923	0.781
PC-14	0.601	0.627	0.487	0.439	0.328	0.593	0.756	0.508	0.517	0.567	0.435	0.36	0.264	0.112	0.098	0.231	0.273	0.237	0.259	0.0807
RERF-LC-KJ	1.15	1.02	1	1.15	1.13	0.42	0.442	0.386	0.476	0.426	1.02	1.02	0.404	0.633	0.636	0.842	0.807	0.664	0.753	0.563
SK-LU-1	0.434	0.441	0.385	0.375	0.383	0.541	0.708	0.497	0.456	0.439	0.39	0.342	0.325	0.345	0.303	0.705	0.599	0.714	0.606	0.422
SK-MES-1	0.304	0.311	0.328	0.283	0.324	0.663	0.748	0.618	0.626	0.639	0.315	0.304	0.303	0.277	0.319	0.377	0.365	0.341	0.341	0.17
SW 900	0.569	0.677	0.552	0.575	0.594	0.658	0.604	0.698	0.496	0.645	0.457	0.506	0.314	0.305	0.348	0.484	0.418	–	0.443	0.358
SW 1573	0.362	0.412	0.394	0.389	0.382	0.35	0.336	0.329	0.394	0.416	0.429	0.407	0.367	0.228	0.251	0.627	0.552	0.491	0.282	0.135
